In article PMC9456400 (International Journal of Molecular Sciences, 2022):

Legend:
[1] = tested on: HepG2 cells; test: Oil Red O staining of neutral lipids; type: cell-based, human; details: HepG2, acute exposure 48 h; silibinin 100 μmol/L as co-treatment with lorlatinib
Description: To confirm these findings, we employed an independent in vitro model of fatty liver disease involving non-tumorigenic HepG2 cells, which are routinely employed as an inducible fatty liver cell model to screen for therapeutic drugs to eliminate lipid accumulation.
(§1) For assessment of neutral lipid formation, cells were washed in PBS, fixed with 4% paraformaldehyde for 30 min, washed in distilled water, and then briefly incubated in 60% isopropanol. Following equilibration, cells were stained with a working solution (60%) of Oil Red O for 20 min. An Oil Red O stock solution was prepared by dissolving 0.35% w/v Oil Red O in 100 mL 100% isopropanol. HCS LipidTOX™ Green Neutral Lipid Stain (Invitrogen; Cat. #H34475) was employed as a second staining cocktail for visualization of intracellular neutral lipids. Formaldehyde fixation and preparing/using the labeling solution was carried out as per the manufacturer’s instructions.

[2] = cited from earlier work
[3] = tested on: Huh-7 cells; test: MTT cell viability assay; type: cell-based; details: Homo sapiens; Huh-7, MTT
Description: (§2) Cell viability effects of lorlatinib were determined using the colorimetric MTT (3-4,5-dimethylthiazol-2-yl-2,5-diphenyl-tetrazolium bromide) reduction assay. Dose–response curves to graded concentrations of lorlatinib were plotted as a percentage of the control cell absorbance, which was obtained from control cells containing the vehicle (DMSO v/v) processed simultaneously. For each treatment, cell viability was evaluated using the following equation: (OD570 of the treated sample/OD570 of the untreated sample) × 100.

[4] = tested on: H2228 NSCLC cell line (ALK rearrangement variant 3a/b); test: MTT cell viability assay; details: read-out: IC50 (cell viability)
Description: as §2

[5] = tested on: Huh-7 cells; test: Oil Red O and LipidTOX staining of neutral lipids; type: cell-based, human; details: Huh-7, chronic exposure 7 days; silibinin 10 μmol/L as co-treatment with lorlatinib
Description: We first employed a conventional index of fatty liver disease––the intracellular accumulation of neutral lipids (steatosis)––to confirm the ability of lorlatinib to trigger hypertriglyceridemia and hypercholesteremia.
as §1

[6] = tested on: ALK-negative A549 NSCLC cells; test: MTT cell viability assay; details: read-out: IC50 (cell viability)
Description: as §2

[7] = pooled safety analysis (n = 295) ref 14, 15

- IC50 [3]: 22 ± 5 µM
- IC50 [4]: 0.9 ± 0.2 µM
- IC50 [6]: 19 ± 5 µM
Compound: C[C@H]1Oc2cc(cnc2N)-c2c(nn(C)c2C#N)CN(C)C(=O)c2ccc(F)cc21 [lorlatinib, (10R)-7-amino-12-fluoro-2,10,16-trimethyl-15-oxo-10,15,16,17-tetrahydro-2H-8,4-(metheno)pyrazolo [4,3-h][2,5,11]-benzoxadiazacyclotetradecine-3-carbonitrile]
- Accumulation of neutral lipids (lipid droplets) [1]: greater number of larger lipid droplets than untreated cells
- Incidence of hypercholesteremia and hypertriglyceridemia ([2]; lung cancer patients): > 80%
- Hyperlipidemia, median time to onset ([2]; patients): 15 days
- Frequency of grade 3 or 4 elevations in total cholesterol and triglycerides (both) ([2]; phase 2 study B7461001 (NCT01970865) ref 2): 16%
- Incidence of hypercholesteremia [2, 7]: 61%
- Incidence of hypertriglyceridemia [2, 7]: 82%
- Accumulation of neutral lipids (lipid droplets) [5]: accumulated large amounts of lipid droplet-like neutral lipids
